The source of these data is patent US20090156638A1, “Uses of nordihydroguaiaretic acid (NDGA) and derivatives thereof in preventing transmission of sexually transmitted diseases” (priority 2007, published 2009).

Read-outs that look alike come from different tables or passages of the source.

The subject of series [1] is HSV-1. As to the kind of experiment: Mutation-insensitivity: IC50 against HSV-1 over ten virus passages. Format: cell-based. From the text:
In contrast, host factors, unlike viral factors, are under no selective pressure to mutate and are in general structurally invariable. […] Table 1 compares the IC50 of M4N and acyclovir for ten passages.

The subject of the next series is SIVmac239. The note with it: read-out: Inhibitory Concentration (IC50 or EC50), 174 × CEM cells.
For series [2], the system named is HSV-1. The note with it: topical application for six days in guinea pigs, up to 50 mM; reference (34); cited from earlier work.
The subject of a further series is HIV-1. The note with it: read-out: Inhibitory Concentration (IC50 or EC50), Cos cells.
The test system of the next series is HSV-2. As to the kind of experiment: Mouse vaginal model of HSV-2 infection. The note with it: for animals infected: 10 mice per group. Format: in vivo, CF-1 mice. On the procedure: The efficacies of […] (FIG. 8A) and […] (FIG. 8A) against HSV-2 in a mouse vaginal model system have also been examined. […] At the end of three days, the vaginal lavages were collected from the washings of the vagina regions. The status of the vaginal HSV-2 infection and replication were examined by their cytopathic effects on cultured human foreskin fibroblast cells. Monitoring and scoring were carried out by three persons independently.

Another series has as its system Sp1 enhancer sequence. The note with it: ethidium displacement; G4N concentration causing 50% reduction of DNA-ethidium fluorescence. From the text:
(§1) The […] (IE) ICP4 gene of HSV is essential for HSV replication.

In another series the test system is HSV-1^R. The note with it: 40 μM; explanted mouse trigeminal ganglia.
For series [3], the system named is acyclovir-resistant strains of HSV-1 (HSV-1^R). The note with it: read-out: Inhibitory Concentration (IC50 or EC50).
Series [4] deals with HSV-1. The note with it: for efficacy against HSV-1 cutaneous infection: day 6. The procedure:
The dorsal cutaneous guinea pig model system is a well-established model for HSV-1 infection.
In FIGS. 6A-6D, for topical treatment with M4N sections of shaved and depilated dorsal guinea pig skin were infected equally were infected with HSV-1.
McKrae strain). […] Treatments were administered twice daily and photogragphs were taken at day 6 post-infection. […] Regions 1 and 4 were infected with high levels of HSV-1 (1×10^8 pfu/mL), regions 2 and 5 were infected with moderate levels of HSV-1 (1×10^6 pfu/mL) and regions 3 and 6 were infected with low levels of HSV-1 (1×10^4 pfu/mL).

Another series concerns HIV-1RTMF. The note with it: read-out: Inhibitory Concentration (IC50 or EC50), H9 cells.
The test system of series [5] is HSV-1. The note with it: read-out: Inhibitory Concentration (IC50 or EC50).
For series [6], the system named is Sp1 transcription factor binding to the major groove of Sp1 site. The note with it: by competition for binding or altering DNA conformation.
Source text: as §1

With `Nc1nc2c(ncn2COCCO)c(=O)[nH]1` [Acyclovir, acyclovir, reference compound], the IC50 was determined as 7.54 µM in the series on HSV-1 [1] (Human alphaherpesvirus 1, HSV-1 passage 1); 37.8 µM in the series with HSV-1 [1] (Human alphaherpesvirus 1, HSV-1 passage 2); 88.8 µM in the series on HSV-1 [1] (Human alphaherpesvirus 1, HSV-1 passage 3); 138 µM with HSV-1 [1] (Human alphaherpesvirus 1, HSV-1 passage 4); 111 µM with HSV-1 [1] (Human alphaherpesvirus 1, HSV-1 passage 5); 131 µM with HSV-1 [1] (Human alphaherpesvirus 1, HSV-1 passage 6). Besides, the IC50 turned out to be 190 µM with HSV-1 [1] (Human alphaherpesvirus 1, HSV-1 passage 7); 444 µM with HSV-1 [1] (Human alphaherpesvirus 1, HSV-1 passage 8); 379 µM with HSV-1 [1] (Human alphaherpesvirus 1, HSV-1 passage 9); 444 µM in the series with HSV-1 [1] (Human alphaherpesvirus 1, HSV-1 passage 10).
Turning to `C[C@H](Cc1ccc(OC(=O)CN(C)C)c(OC(=O)CN(C)C)c1)[C@@H](C)Cc1ccc(OC(=O)CN(C)C)c(OC(=O)CN(C)C)c1` [G4N, tetra-O—(N,N-dimethyl)glycyl-nordihydroguaiaretic acid], the IC50 with SIVmac239 was 5 µM; in the series with HIV-1 it was 36 µM; in series [3] (HSV-1^R F59878), 2.1 µM; in [3] (HSV-1^R T28387) it was 4.3 µM; in the series with HIV-1RTMF it was 12 µM; in the series on HSV-1 [5] (HSV-1 McKrae (Vero from row above)), 4.5 µM. The IC50 in the series with HSV-1 [5] (Vero cells, HSV-1 KOS) worked out at 3.6 µM. In the series on HSV-1 [2], the toxicity result is “no evidence of toxicity”. For the same compound, the average infection score in the series on HSV-2 (0.1 mM) is recorded as 0.5. The compound further returned an infection in the series with HSV-2 (0.1 mM) of roughly 12.5%. For the same compound, the animals infected with HSV-2 (0.1 mM, vaginal lavage at three days) is recorded as 1 out of 10; with HSV-2 (10 mM), “no infections detected”; with HSV-2 (100 mM), “no infections detected”. Moreover, in the series on Sp1 enhancer sequence, the “apparent equilibrium binding constant (Kapp)” value was 3e+06 M⁻¹. Also, the “decrease in HSV reactivation” value in the series with HSV-1^R is 40 μM had 67%. Further, the “efficacy against HSV-1 cutaneous infection” value in the series with HSV-1 [4] (5 mM topically twice daily, 1×10^8 pfu/mL McKrae) is given as “semi-effective”; in the series with HSV-1 [4] (10 mM topically twice daily, 1×10^8 pfu/mL McKrae), “more effective”; in the series on HSV-1 [4] (150 mM topically twice a day, 1×10^4 to 1×10^8 pfu/mL), “extremely effective”. In addition, in the series with HSV-1 [4] (topical application, guinea pig), the “inhibition of HSV-1 induced cutaneous lesion formation and viral shedding” value was “effectively inhibited HSV-1 induced cutaneous lesion formation and viral shedding”.
Turning to `COc1cc(CC(C)C(C)Cc2ccc(O)c(O)c2)ccc1O` (stereo not shown) [Mal.4, 3′-O-methyl nordihydroguaiaretic acid], in the series on HIV-1, the IC50 came to 25 µM.
`CC(Cc1ccc(OCCN2CCCCC2)c(OCCN2CCCCC2)c1)C(C)Cc1ccc(OCCN2CCCCC2)c(OCCN2CCCCC2)c1` (stereo not shown) [P4N, tetra-O—(N-ethylpiperidinyl)-nordihydroguaiaretic acid]: in the series on HSV-2 (10 mM), the “average scale of infection” value was 0.19 and the animals infected is listed as 2 of 10. For the same compound, the “efficacy against vaginal HSV-2 infection” value with HSV-2 (in PBS) is “quite effective”. Besides, the “disruption of Sp1 transcription factor binding” value in [6] was “disrupt Sp1 transcription factor binding”.
